# Reference: PubChem BioAssay (NCI)
#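 Protocol summary: plate cells (96-well), add compound at 5 concentrations, incubate 48 h, interpolate endpoints linearly. GI50 is the concentration that inhibits growth by half. Definition used: TGI = concentration required for complete inhibition of growth.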
# Tests used:
# Assay in all cases: NCI tumour cell line growth inhibition, 48 h
# [1] = tested on: A498 renal
# [2] = tested on: SK-MEL-5 melanoma
# [3] = tested on: MDA-MB-435
# [4] = tested on: HOP-62 NSCLC
# [5] = tested on: OVCAR-5 ovarian
# [6] = tested on: OVCAR-8 ovarian
# [7] = tested on: HT29 colon
# [8] = tested on: SF-539 CNS
# [9] = tested on: CAKI-1 renal
# [10] = tested on: KM12 colon
# [11] = tested on: HCT-116 colon
# [12] = tested on: UO-31 renal
# [13] = tested on: EKVX NSCLC
# [14] = tested on: SW-620 colon
# [15] = tested on: SF-268 CNS
# [16] = tested on: IGROV1 ovarian
# [17] = tested on: SNB-19 CNS
# [18] = tested on: HS 578T breast
# [19] = tested on: U251 CNS
# [20] = tested on: ACHN renal
# [21] = tested on: T-47D breast
# [22] = tested on: NCI-H522 lung
# [23] = tested on: NCI-H23 lung
# [24] = tested on: HCC-2998 colon
# [25] = tested on: DU-145 prostate
# [26] = tested on: SF-295 CNS
# [27] = tested on: OVCAR-3 ovarian
# [28] = tested on: UACC-257 melanoma
# [29] = tested on: LOX IMVI melanoma
# [30] = tested on: COLO 205 colon
# [31] = tested on: UACC-62 melanoma
# [32] = tested on: M14 melanoma
# [33] = tested on: SR leukemia
# [34] = tested on: MCF7 breast
# [35] = tested on: SK-OV-3 ovarian
# [36] = tested on: A549 NSCLC
# [37] = tested on: NCI-H460 lung
# [38] = tested on: PC-3 prostate
# [39] = tested on: RXF 393 renal
# [40] = tested on: HL-60(TB) leukemia
# [41] = tested on: OVCAR-4 ovarian
# [42] = tested on: MALME-3M melanoma
# [43] = tested on: BT-549 breast
# [44] = tested on: SN12C renal
# [45] = tested on: TK-10 renal
# [46] = tested on: SK-MEL-28 melanoma
# [47] = tested on: HOP-92 NSCLC
# [48] = tested on: K-562 leukemia
# [49] = tested on: RPMI-8226 leukemia
# [50] = tested on: 786-0 renal
# [51] = tested on: CCRF-CEM leukemia
# [52] = tested on: MOLT-4 leukemia
# [53] = tested on: MDA-MB-231 breast
# [54] = tested on: SK-MEL-2 melanoma
# [55] = tested on: NCI-H226 lung
# [56] = tested on: HCT-15 colon
# [57] = tested on: NCI/ADR-RES ovarian
# [58] = tested on: SNB-75 CNS
smiles,measurement,setting,value
CCS(=O)(=O)c1ccc(OC)c(Nc2ncc(-c3cccc(F)c3)o2)c1,GI50,[1],0.34 µM
same,TGI,[1],> 25 µM
same,GI50,[2],> 25 µM
same,TGI,[2],> 25 µM
same,GI50,[3],> 25 µM
same,TGI,[3],> 25 µM
same,GI50,[4],> 25 µM
same,TGI,[4],> 25 µM
same,GI50,[5],> 25 µM
same,TGI,[5],> 25 µM
same,GI50,[6],> 25 µM
same,TGI,[6],> 25 µM
same,GI50,[7],> 25 µM
same,TGI,[7],> 25 µM
same,GI50,[8],> 25 µM
same,TGI,[8],> 25 µM
same,GI50,[9],> 25 µM
same,TGI,[9],> 25 µM
same,GI50,[10],0.649 µM
same,TGI,[10],> 25 µM
same,GI50,[11],> 25 µM
same,TGI,[11],> 25 µM
same,GI50,[12],> 25 µM
same,TGI,[12],> 25 µM
same,GI50,[13],> 25 µM
same,TGI,[13],> 25 µM
same,GI50,[14],> 25 µM
same,TGI,[14],> 25 µM
same,GI50,[15],> 25 µM
same,TGI,[15],> 25 µM
same,GI50,[16],> 25 µM
same,TGI,[16],> 25 µM
same,GI50,[17],> 25 µM
same,TGI,[17],> 25 µM
same,GI50,[18],2.5 µM
same,TGI,[18],> 22.3 µM
same,GI50,[19],> 25 µM
same,TGI,[19],> 25 µM
same,GI50,[20],> 25 µM
same,TGI,[20],> 25 µM
same,GI50,[21],> 25 µM
same,TGI,[21],> 25 µM
same,GI50,[22],> 25 µM
same,TGI,[22],> 25 µM
same,GI50,[23],> 25 µM
same,TGI,[23],> 25 µM
same,GI50,[24],> 25 µM
same,TGI,[24],> 25 µM
same,GI50,[25],> 25 µM
same,TGI,[25],> 25 µM
same,GI50,[26],> 25 µM
same,TGI,[26],> 25 µM
same,GI50,[27],> 25 µM
same,TGI,[27],> 25 µM
same,GI50,[28],> 25 µM
same,TGI,[28],> 25 µM
same,GI50,[29],> 25 µM
same,TGI,[29],> 25 µM
same,GI50,[30],> 25 µM
same,TGI,[30],> 25 µM
same,GI50,[31],> 25 µM
same,TGI,[31],> 25 µM
same,GI50,[32],> 25 µM
same,TGI,[32],> 25 µM
same,GI50,[33],> 25 µM
same,TGI,[33],> 25 µM
same,GI50,[34],> 25 µM
same,TGI,[34],> 25 µM
same,GI50,[35],> 25 µM
same,TGI,[35],> 25 µM
same,GI50,[36],> 25 µM
same,TGI,[36],> 25 µM
same,GI50,[37],> 25 µM
same,TGI,[37],> 25 µM
same,GI50,[38],> 25 µM
same,TGI,[38],> 25 µM
same,GI50,[39],> 20.8 µM
same,TGI,[39],> 25 µM
same,GI50,[40],> 25 µM
same,TGI,[40],> 25 µM
same,GI50,[41],> 25 µM
same,TGI,[41],> 25 µM
same,GI50,[42],> 25 µM
same,TGI,[42],> 25 µM
same,GI50,[43],> 25 µM
same,TGI,[43],> 25 µM
same,GI50,[44],> 25 µM
same,TGI,[44],> 25 µM
same,GI50,[45],> 25 µM
same,TGI,[45],> 25 µM
same,GI50,[46],> 25 µM
same,TGI,[46],> 25 µM
same,GI50,[47],> 25 µM
same,TGI,[47],> 25 µM
same,GI50,[48],> 25 µM
same,TGI,[48],> 25 µM
same,GI50,[49],> 25 µM
same,TGI,[49],> 25 µM
same,GI50,[50],> 25 µM
same,TGI,[50],> 25 µM
same,GI50,[51],> 25 µM
same,TGI,[51],> 25 µM
same,GI50,[52],> 25 µM
same,TGI,[52],> 25 µM
same,GI50,[53],> 25 µM
same,TGI,[53],> 25 µM
same,GI50,[54],> 25 µM
same,TGI,[54],> 25 µM
same,GI50,[55],0.513 µM
same,TGI,[55],> 25 µM
same,GI50,[56],> 25 µM
same,TGI,[56],> 25 µM
same,GI50,[57],> 25 µM
same,TGI,[57],> 25 µM
same,GI50,[58],> 10.6 µM
same,TGI,[58],> 25 µM
